Usually EC50 stands for the midpoint of the concentration-response curve.

Read-outs that look alike come from different tables or passages of the source. Peptide text beside a SMILES is read from it. A value given as a limit tells only on which side of the number the result lay.

Results on eight compounds are retold here after US20160159861A1, “APJ Receptor Compounds” (priority 2013, published 2016).

This assay deals with T1, human APJ receptor (hAPJ) (Homo sapiens, UniProt P35414).
T1 construct: expressed in transfected cells
T1 sequence (P35414 1-380): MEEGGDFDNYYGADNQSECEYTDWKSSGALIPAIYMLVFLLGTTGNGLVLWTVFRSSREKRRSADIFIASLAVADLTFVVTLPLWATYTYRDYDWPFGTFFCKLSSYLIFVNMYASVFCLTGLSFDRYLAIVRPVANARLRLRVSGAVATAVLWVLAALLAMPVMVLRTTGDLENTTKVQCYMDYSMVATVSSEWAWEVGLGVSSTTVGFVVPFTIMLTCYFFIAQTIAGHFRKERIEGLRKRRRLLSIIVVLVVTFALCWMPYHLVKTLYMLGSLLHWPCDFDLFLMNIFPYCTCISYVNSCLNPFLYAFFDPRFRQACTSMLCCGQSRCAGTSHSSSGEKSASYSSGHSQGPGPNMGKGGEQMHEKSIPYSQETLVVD
Briefly: HTRF cAMP assay: inhibition of NKH477-stimulated cAMP in HEK cells stably expressing hAPJ. The format is cell-based. Conditions: for Emax: HEK293, read-out: % IA, bound stated; for % IA (cAMP inhibition, hAPJ HEK): intrinsic activity; for Ranking: composite class of EC50 (hAPJ), % IA and % histamine or formal (+) charge. The text has this:
HTRF cAMP Assay and IP-One Assay (Cisbio)
HTRF (homogeneous time resolved fluorescence) is a technology developed by Cisbio Bioassays based on TR-FRET (time-resolved fluorescence resonance energy transfer). Cisbio Bioassays has developed a wide selection of HTRF-based assays compatible with whole cells, thereby enabling functional assays to run under more physiological conditions. The IP-One assays are competitive immunoassays using cryptate-labeled anti-IP1 monoclonal antibody and d2-labeled IP1. IP1 is a relatively stable downstream metabolite of IP3, and accumulates in cells following Gq receptor activation.
cAMP kits based on a competitive immunoassay using cryptate-labeled anti-cAMP antibody and d2-labeled cAMP were used to assay the effects of APJ compounds of the present invention. […] Cells are treated with 1 nG/mL doxycycline and seeded in all white 96 well plates @40 k/well overnight.

[1] abbreviates: EC50 (cAMP inhibition, hAPJ HEK), Table 6, hAPJ HEK cells, NKH477-stimulated cAMP.
The mark [2] stands for this setting: EC50 (hAPJ), inhibition of cAMP production, bound stated, HTRF cAMP Assay, per data of Table 6.
The mark [3] stands for this setting: HTRF cAMP Assay, per data of Table 6.
Setting [4] is: HTRF cAMP Assay, per data of Table 6, read-out: EC50 (hAPJ), inhibition of cAMP production, bound stated.
Setting [5] is: Table 6, hAPJ HEK cells, NKH477-stimulated cAMP, read-out: EC50 (cAMP inhibition, hAPJ HEK).

As for `CCCCCCCCCCCCCCCC(=O)N[C@H](C(=O)N[C@H](C(=O)N[C@@H](CC(=O)O)C(=O)N[C@@H](CCCNC(=N)N)C(=O)N[C@@H](CO)C(=O)N[C@@H](CO)C(=O)N[C@@H](CCC(N)=O)C(=O)N[C@@H](CCC(=O)O)C(=O)N[C@H](CCCCN)C(=O)N[C@@H](CCCNC(=N)N)C(=O)N[C@@H](CCCNC(=N)N)C(=O)N[C@@H](CO)C(=O)N[C@@H](C)C(=O)N[C@@H](CC(=O)O)C(=O)N[C@H](C(=O)N[C@@H](Cc1ccccc1)C(=O)N[C@H](C(N)=O)[C@@H](C)CC)[C@@H](C)CC)C(C)C)[C@@H](C)O` [Compound 6] (HELM PEPTIDE1{[CCCCCCCCCCCCCCCC(=O)[*:2]].T.V.D.R.S.S.Q.E.[dK].R.R.S.A.D.I.F.I.[am]}$$$$V2.0), the Ranking entry is “*** (EC50 25-50 nM (hAPJ), % IA 50-79% and either % histamine≦35% or formal (+) charge≦1)”. Moreover, under setting [1], the EC50 amounted to 19 nM. Further, the EC50 under setting [2] fell in the range of 25 to 50 nM. Besides, under setting [3], the Emax lay in the range of 50 to 79%. In addition, the “% IA (cAMP inhibition, hAPJ HEK)” value (Table 6, hAPJ HEK cells) stood at 77%.

Regarding `CCCCCCCCCCCCCCCC(=O)N[C@@H](CC(=O)O)C(=O)N[C@H](C(=O)N[C@@H](Cc1ccccc1)C(=O)N[C@@H](CCCNC(=N)N)C(=O)N[C@@H](CO)C(=O)N[C@@H](CO)C(=O)N[C@@H](CCC(=O)O)C(=O)N[C@H](CCCCN)C(=O)N[C@@H](CCCNC(=N)N)C(=O)N[C@@H](CCCNC(=N)N)C(=O)N[C@@H](CO)C(=O)N[C@@H](C)C(=O)N[C@@H](CC(=O)O)C(=O)N[C@@H](CC(N)=O)C(=O)N[C@@H](Cc1ccccc1)C(=O)N[C@H](C(N)=O)[C@@H](C)CC)C(C)C` [Compound 20] (HELM PEPTIDE1{[CCCCCCCCCCCCCCCC(=O)[*:2]].D.V.F.R.S.S.E.[dK].R.R.S.A.D.N.F.I.[am]}$$$$V2.0), the Ranking entry is “*** (EC50 25-50 nM (hAPJ), % IA 50-79% and either % histamine≦35% or formal (+) charge≦1)”. Besides, the Emax under setting [3] lay within 50 to 79%. Besides, the 50% effective concentration (EC50) under setting [4] fell in the range of 25 to 50 nM. For the same compound, the EC50 under setting [5] came to 32 nM. Also, the “% IA (cAMP inhibition, hAPJ HEK)” value (Table 6, hAPJ HEK cells) came out at 98%.

Turning to `CCCCCCCCCCCCCCCC(=O)N[C@H](C(=O)N[C@H](C(=O)N[C@@H](CC(=O)O)C(=O)N[C@@H](CCCNC(=N)N)C(=O)N[C@@H](CO)C(=O)N[C@@H](CO)C(=O)N[C@@H](CCCCN)C(=O)N[C@@H](CCC(=O)O)C(=O)N[C@H](CCCCN)C(=O)N[C@@H](CCCNC(=N)N)C(=O)N[C@@H](CCCNC(=N)N)C(=O)N[C@@H](CO)C(=O)N[C@@H](C)C(=O)N[C@@H](CC(=O)O)C(=O)N[C@H](C(=O)N[C@@H](Cc1ccccc1)C(=O)N[C@H](C(N)=O)[C@@H](C)CC)[C@@H](C)CC)C(C)C)[C@@H](C)O` [Compound 7] (HELM PEPTIDE1{[CCCCCCCCCCCCCCCC(=O)[*:2]].T.V.D.R.S.S.K.E.[dK].R.R.S.A.D.I.F.I.[am]}$$$$V2.0), the Ranking result was “*** (EC50 25-50 nM (hAPJ), % IA 50-79% and either % histamine≦35% or formal (+) charge≦1)”. In addition, the midpoint of the response under setting [1], the EC50, lay at 9 nM. In addition, the concentration giving a half-maximal response (EC50) under setting [2] was 25 to 50 nM. Also, the Emax under setting [3] fell in the range of 50 to 79%. In addition, the “% IA (cAMP inhibition, hAPJ HEK)” value (Table 6, hAPJ HEK cells) was determined as 59%.

In the case of `CCCCCCCCCCCCCCCC(=O)N[C@@H](CC(=O)O)C(=O)N[C@H](C(=O)N[C@@H](Cc1ccccc1)C(=O)N[C@@H](CC(N)=O)C(=O)N[C@@H](CO)C(=O)N[C@@H](CO)C(=O)N[C@@H](CCC(=O)O)C(=O)N[C@H](CCCCN)C(=O)N[C@@H](CCCNC(=N)N)C(=O)N[C@@H](CCCNC(=N)N)C(=O)N[C@@H](CO)C(=O)N[C@@H](C)C(=O)N[C@@H](CC(=O)O)C(=O)N[C@@H](CC(N)=O)C(=O)N[C@@H](Cc1ccccc1)C(=O)N[C@H](C(N)=O)[C@@H](C)CC)C(C)C` [Compound 19] (HELM PEPTIDE1{[CCCCCCCCCCCCCCCC(=O)[*:2]].D.V.F.N.S.S.E.[dK].R.R.S.A.D.N.F.I.[am]}$$$$V2.0), the Ranking entry is “*** (EC50 25-50 nM (hAPJ), % IA 50-79% and either % histamine≦35% or formal (+) charge≦1)”. Moreover, the Emax under setting [3] lay in the range of 50 to 79%. In addition, the EC50 under setting [4] was 25 to 50 nM. Moreover, under setting [5], the EC50 came out at 5 nM. Further, the “% IA (cAMP inhibition, hAPJ HEK)” value (Table 6, hAPJ HEK cells) was found to be 67%.

`CCCCCCCCCCCCCCCC(=O)N[C@@H](CC(=O)O)C(=O)N[C@H](C(=O)N[C@@H](Cc1c[nH]cn1)C(=O)N[C@@H](CCCNC(=N)N)C(=O)N[C@@H](CO)C(=O)N[C@@H](CO)C(=O)N[C@@H](CCC(=O)O)C(=O)N[C@H](CCCCN)C(=O)N[C@@H](CCCNC(=N)N)C(=O)N[C@@H](CCCNC(=N)N)C(=O)N[C@@H](CO)C(=O)N[C@@H](C)C(=O)N[C@@H](CC(=O)O)C(=O)N[C@@H](CCC(N)=O)C(=O)N[C@@H](Cc1ccccc1)C(=O)N[C@H](C(N)=O)[C@@H](C)CC)C(C)C` [Compound 36] (HELM PEPTIDE1{[CCCCCCCCCCCCCCCC(=O)[*:2]].D.V.H.R.S.S.E.[dK].R.R.S.A.D.Q.F.I.[am]}$$$$V2.0): the Ranking result was “***** (EC50≦25 nM (hAPJ), % IA≧80% and either % histamine≦35% or formal (+) charge≦1)”. For the same compound, the Emax under setting [3] was at least 80%. Besides, under setting [4], the EC50 was at most 25 nM. Under setting [5], the 50% effective concentration (EC50) was 2 nM. Besides, the “% IA (cAMP inhibition, hAPJ HEK)” value (Table 6, hAPJ HEK cells) worked out at 101%. The “inhibition of NKH477-stimulated increase in cAMP, dose dependent” value (concentration response curves, FIGS. 1 and 2, HEK cells stably expressing APJ) is listed as “inhibited”.

On to `CCCCCCCCCCCCCCCC(=O)N[C@H](C(=O)N[C@H](C(=O)N[C@@H](Cc1ccccc1)C(=O)N(C)[C@@H](CCCNC(=N)N)C(=O)N[C@@H](CO)C(=O)N[C@@H](CO)C(=O)N[C@@H](CCC(=O)O)C(=O)N[C@H](CCCCN)C(=O)N[C@@H](CCCNC(=N)N)C(=O)N[C@@H](CCCNC(=N)N)C(=O)N[C@@H](CO)C(=O)N[C@@H](C)C(=O)N[C@@H](CC(=O)O)C(=O)N[C@H](C(=O)N[C@@H](Cc1ccccc1)C(=O)N[C@H](C(N)=O)[C@@H](C)CC)[C@@H](C)CC)C(C)C)[C@@H](C)O` [Compound 31] (HELM PEPTIDE1{[CCCCCCCCCCCCCCCC(=O)[*:2]].T.V.F.[meR].S.S.E.[dK].R.R.S.A.D.I.F.I.[am]}$$$$V2.0), for which the Ranking result was “** (EC50 25-50 nM (hAPJ), % IA 50-79% and either % histamine>35% or formal (+) charge>1)”. Moreover, under “Table 6, hAPJ HEK cells”, the “% IA (cAMP inhibition, hAPJ HEK)” value amounted to 84%.

For `CCCCCCCCCCCCCCCC(=O)N[C@H](C(=O)N[C@H](C(=O)N[C@@H](CC(=O)O)C(=O)N[C@@H](CCCNC(=N)N)C(=O)N[C@@H](CO)C(=O)N[C@@H](CO)C(=O)N[C@@H](CCCNC(=N)N)C(=O)N[C@@H](CCC(=O)O)C(=O)N[C@H](CCCCN)C(=O)N[C@@H](CCCNC(=N)N)C(=O)N[C@@H](CCCNC(=N)N)C(=O)N[C@@H](CCC(=O)O)C(=O)N[C@@H](CO)C(=O)N[C@@H](C)C(=O)N[C@@H](CC(=O)O)C(=O)N[C@H](C(=O)N[C@@H](Cc1ccccc1)C(=O)N[C@H](C(N)=O)[C@@H](C)CC)[C@@H](C)CC)C(C)C)[C@@H](C)O` [Compound 5] (HELM PEPTIDE1{[CCCCCCCCCCCCCCCC(=O)[*:2]].T.V.D.R.S.S.R.E.[dK].R.R.E.S.A.D.I.F.I.[am]}$$$$V2.0), the Ranking result is reported as “* (EC50≦50 nM (hAPJ), % IA<50%)”. Also, the EC50 under setting [5] was found to be 40 nM. Besides, the “% IA (cAMP inhibition, hAPJ HEK)” value (Table 6, hAPJ HEK cells) came to 41%.

As for `CCCCCCCCCCCCCCCC(=O)N[C@H](C(=O)N[C@H](C(=O)N[C@@H](CC(=O)O)C(=O)N[C@@H](CCCNC(=N)N)C(=O)N[C@@H](CO)C(=O)N[C@@H](CO)C(=O)N[C@@H](CCC(=O)O)C(=O)N[C@H](CCCCN)C(=O)N[C@@H](CCCNC(=N)N)C(=O)N[C@@H](CCCNC(=N)N)C(=O)N[C@@H](CO)C(=O)N[C@@H](C)C(=O)N[C@@H](CC(=O)O)C(=O)N[C@@H](Cc1ccc(F)cc1)C(=O)N[C@@H](Cc1ccccc1)C(=O)N[C@H](C(N)=O)[C@@H](C)CC)C(C)C)[C@@H](C)O` [Compound 33, TVDRSSEkRRSAD(p-fluoro-Phe)FI] (HELM PEPTIDE1{[CCCCCCCCCCCCCCCC(=O)[*:2]].T.V.D.R.S.S.E.[dK].R.R.S.A.D.[O=C([C@H](Cc1ccc(F)cc1)N[*:1])[*:2]].F.I.[am]}$$$$V2.0), the Ranking result was “*** (EC50 25-50 nM (hAPJ), % IA 50-79% and either % histamine≦35% or formal (+) charge≦1)”. The Emax under setting [3] fell in the range of 50 to 79%. Further, the EC50 under setting [4] is 25 to 50 nM. Further, under setting [5], the concentration giving a half-maximal response (EC50) came out at 30 nM. The “% IA (cAMP inhibition, hAPJ HEK)” value (Table 6, hAPJ HEK cells) came out at 80%.
